What all share (assay type): cell-based
Series [1] concerns Acinetobacter baumannii ABA19-1. The note with it: ABA19-1. The procedure, abridged: (§1)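 Colonies from 18-24 h plates were suspended to 0.5 McFarland and diluted in MH broth. Two-fold compound dilutions were then mixed 1:1 with inoculum to reach 64 to 0.03 mg/L and (2-4) × 10^5 CFU/mL. Plates were sealed and incubated at 35-37°C for 16-20 h, after which the MIC was read.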
The subject of series [2] is Acinetobacter baumannii NCTC 13304 (OXA-27). The note with it: NCTC 13304. The procedure, abridged:
as §1

Series [3] concerns Escherichia coli ATCC BAA-2340 (KPC). The note with it: ATCC BAA-2340. The essentials:
as §1

Series [4] has as its system Escherichia coli ATCC BAA-2523. The conditions noted are these: ATCC BAA-2523. The procedure, abridged:
as §1

Series [5] concerns Klebsiella pneumoniae ATCC BAA-1705 (KPC). The conditions noted are these: ATCC BAA-1705. The essentials: as §1
Series [6] concerns Klebsiella pneumoniae KPN+19-15. The conditions noted are these: KPN+19-15. The essentials:
as §1

Series [7] concerns Pseudomonas aeruginosa ATCC 27853. The note with it: ATCC 27853. The procedure, abridged: as §1
Series [8] deals with Pseudomonas aeruginosa PAE19-3. The note with it: PAE19-3. The procedure, abridged: as §1
A short description of series [9]: Nephrotoxicity assay: in vitro cytotoxicity of HK-2 cells by CCK-8 assay. The note with it: human, HK-2 cells (human renal), 72 h incubation with drug-containing medium. The essentials: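 HK-2 human renal cells in RPMI-1640 with 10% FBS were exposed to compounds at final 12.5–500 µg/mL for 72 h, then CCK-8 for 3 h and OD450 read. Viability was normalised to drug-free wells; IC50 came from logarithmic regression over three repeats, with polymyxin B as positive drug.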

Our source for the MIC and IC50 values is patent EP4725957A1, “GROUP OF CYCLIC ALKALINE LIPOPEPTIDE COMPOUNDS, AND PREPARATION METHOD THEREFOR AND USE THEREOF” (Institute of Medicinal Biotechnology, Chinese Academy of …, priority 2023, dated 2024).

≈ marks a conversion by molar mass, not a printed value. Numbered stars: 1 amine (or outer) side, 2 acyl side, 3 side chain; on linkers, the order of the positions; unused ones are H or OH. Bridge positions count the residues as written; N and C are the ends. Square brackets hold non-standard residues; d marks the D form. Peptide text beside a SMILES is read from it. * marks the point of attachment. X3 = O=C([C@@H](Cc1ccc(CS(=O)(=O)O)cc1)N[*:1])[*:2]; Heptanoyl(6-Me) = CC(C)CCCCC(=O)*; Sulfomethyl = O=S(=O)(O)C*; Dab = NCC[C@H](N)C(=O)O; Dap = NC[C@H](N)C(=O)O

With `CC(C)CCCCC(=O)N[C@@H](CCN)C(=O)N[C@H](C(=O)N[C@@H](CN)C(=O)N[C@H]1CCNC(=O)[C@H]([C@@H](C)O)NC(=O)[C@H](CCN)NC(=O)[C@H](CCN)NC(=O)[C@H]([C@@H](C)O)NC(=O)[C@@H](Cc2ccccc2)NC(=O)[C@H](CCN)NC1=O)[C@@H](C)OCS(=O)(=O)O` [Compound 113, 6-methylheptanoyl-Dab-Thr(CH2SO3H)-Dap-ring(4-10)[Dab-Dab-D-Phe-Thr-Dab-Dab-Thr]] ({Heptanoyl(6-Me)}-[Dab]T(Sulfomethyl)[Dap][Dab][Dab][dF]T[Dab][Dab]T; lactam 4-C), the MIC was found to be 0.06 µg/mL (≈ 0.0477 µM) in series [1]; 0.06 µg/mL (≈ 0.0477 µM) in [2]; 0.03 µg/mL (≈ 0.0239 µM) in series [3]; 0.03 µg/mL (≈ 0.0239 µM) in series [4]; 0.125 µg/mL (≈ 0.0994 µM) in [5]; 0.125 µg/mL (≈ 0.0994 µM) in [6]. For the same compound, the minimal inhibitory concentration (MIC) in series [7] and in series [8] was 0.25 µg/mL (≈ 0.199 µM) throughout. In [9], this compound yielded an IC50 at 72 h above 500 µg/mL.

In the case of `CC(C)CCCCC(=O)N[C@@H](CCN)C(=O)N[C@H](C(=O)N[C@@H](CN)C(=O)N[C@H]1CCNC(=O)[C@H]([C@@H](C)O)NC(=O)[C@H](CCN)NC(=O)[C@H](CCN)NC(=O)[C@H]([C@@H](C)OCS(=O)(=O)O)NC(=O)[C@@H](Cc2ccccc2)NC(=O)[C@H](CCN)NC1=O)[C@@H](C)O` [Compound 114, 6-methylheptanoyl-Dab-Thr-Dap-ring(4-10)[Dab-Dab-D-Phe-Thr(CH2SO3H)-Dab-Dab-Thr]] ({Heptanoyl(6-Me)}-[Dab]T[Dap][Dab][Dab][dF]T(Sulfomethyl)[Dab][Dab]T; lactam 4-C), the minimum inhibitory concentration (MIC) in series [1] is 0.06 µg/mL (≈ 0.0477 µM); in series [2], 0.06 µg/mL (≈ 0.0477 µM); in series [3], 0.03 µg/mL (≈ 0.0239 µM); in series [4] it was 0.03 µg/mL (≈ 0.0239 µM); in series [5], 0.125 µg/mL (≈ 0.0994 µM); in series [6], 0.125 µg/mL (≈ 0.0994 µM). For the same compound, the minimal inhibitory concentration (MIC) in [7] and in [8] was 0.25 µg/mL (≈ 0.199 µM) in each case. The compound also came in with an IC50 at 72 h in series [9] above 500 µg/mL.

For the compound `CC(C)CCCCC(=O)N[C@@H](CCN)C(=O)N[C@H](C(=O)N[C@@H](CN)C(=O)N[C@H]1CCNC(=O)[C@H]([C@@H](C)OCS(=O)(=O)O)NC(=O)[C@H](CCN)NC(=O)[C@H](CCN)NC(=O)[C@H]([C@@H](C)O)NC(=O)[C@@H](Cc2ccccc2)NC(=O)[C@H](CCN)NC1=O)[C@@H](C)O` [Compound 115, 6-methylheptanoyl-Dab-Thr-Dap-ring(4-10)[Dab-Dab-D-Phe-Thr-Dab-Dab-Thr(CH2SO3H)]] ({Heptanoyl(6-Me)}-[Dab]T[Dap][Dab][Dab][dF]T[Dab][Dab]T(Sulfomethyl); lactam 4-C), the MIC was determined as 0.06 µg/mL (≈ 0.0477 µM) in series [1]; 0.06 µg/mL (≈ 0.0477 µM) in series [2]; 0.03 µg/mL (≈ 0.0239 µM) in series [3]; 0.03 µg/mL (≈ 0.0239 µM) in series [4]; 0.125 µg/mL (≈ 0.0994 µM) in [5]; 0.125 µg/mL (≈ 0.0994 µM) in [6]. Also, the MIC in series [7] and in series [8] was 0.25 µg/mL (≈ 0.199 µM) in each case. The half-inhibitory concentration (IC50) at 72 h in series [9] was above 500 µg/mL.

On to `CC(C)CCCCC(=O)N[C@@H](CCN)C(=O)N[C@H](C(=O)N[C@@H](CN)C(=O)N[C@H]1CCNC(=O)[C@H]([C@@H](C)O)NC(=O)[C@H](CCN)NC(=O)[C@H](CCN)NC(=O)[C@H]([C@@H](C)O)NC(=O)[C@@H](Cc2ccc(CS(=O)(=O)O)cc2)NC(=O)[C@H](CCN)NC1=O)[C@@H](C)O` [Compound 116, 6-methylheptanoyl-Dab-Thr-Dap-ring(4-10)[Dab-Dab-D-Phe(4-CH2SO3H)-Thr-Dab-Dab-Thr]] ({Heptanoyl(6-Me)}-[Dab]T[Dap][Dab][Dab][X3]T[Dab][Dab]T; lactam 4-C), for which the MIC in series [1] stood at 0.06 µg/mL (≈ 0.0477 µM); in series [2] it was 0.06 µg/mL (≈ 0.0477 µM); in [3], 0.03 µg/mL (≈ 0.0239 µM); in series [4], 0.03 µg/mL (≈ 0.0239 µM); in [5], 0.125 µg/mL (≈ 0.0994 µM); in [6], 0.125 µg/mL (≈ 0.0994 µM). The MIC in [7] and in series [8] was 0.25 µg/mL (≈ 0.199 µM) each time. Besides, the IC50 at 72 h in series [9] is above 500 µg/mL.
